Laboratory results as given in publication PMC5479826, “Determination of Crucial Immunogenic Epitopes in Major Peanut Allergy Protein, Ara h2, via Novel Nanoallergen Platform” (Scientific Reports, 2017).

Tested on: patient sera IgEs
Test: ELISA binding assay with patient sera
Design: species or system human
Experimental: A high binding 96 well plate was incubated with anti-Human IgE in Carbonate-Bicarbonate buffer (Sigma) at a concentration of 3 nM for 16 hours at 4 °C. Plate was washed with washing buffer (PBS with 0.5% tween 20) and then blocked with blocking buffer (5% BSA in PBS with 0.1% tween 20) for 1 hr at room temperature. Plate was washed with automatic plate washer (AquaMax 2000), then varying concentrations of either Ara h2-Biotin (Indoors Biotechnologies) or FITC-peptide 2 conjugate in blocking buffer for 1 hour. Plate was washed again and then either streptavidin-HRP (1:5 000 dilution) or anti-FITC HRP IgG (1:5000 dilution) was added in blocking buffer. After another washing step, Amplex Red substrate was added (Invitrogen) and plate fluorescence was read at 5 minute intervals according to manufacturer’s instructions.

EC50 (Fig. S-2, patient serum 1 on anti-IgE coated plate, Ara h 2-Biotin or FITC-tagged epitope 2 peptide): 465 ± 200 nM
Substance: ERDPYSP^OHSQDPYSP^OHS [Epitope 2]
Binding to patient sera IgEs in ELISA (detectability) (serum 1, result in words): detectable binding
